The results in this text go back to US20090264355A1, “METHODS TO TREAT ALZHEIMER'S DISEASE OR OTHER DISORDERS MEDIATED BY AMYLOID-BETA ACCUMULATION IN A SUBJECT” (WASHINGTON UNIVERSITY IN ST. LOUIS, priority 2005, published 2009).

Series [1] concerns the target T1, Pgp (Mus musculus, UniProt P21447).
T1 construct: from tissue; host or cells: brain (blood-brain barrier) of living 3 month old APPsw+/- (Tg2576) mice
As to the kind of experiment: ISF Aβ in vivo microdialysis after acute pharmacologic inhibition of Pgp. Set-up: species or system APPsw mice. The conditions noted are these: 80 mg/kg intravenous. The procedure:
In vivo microdialysis to assess brain ISF Aβ1-x in the hippocampus of awake, freely moving 3 month old APPsw^+/− mice was performed exactly as described (Cirrito, J. R., et al. 2003. J. Neurosci. 23:8844-8853; DeMattos, R. B., et al. 2004. Neuron. 41:193-202). Aβ1-x represents all Aβ peptides beginning at amino acid 1 of the N-terminus with the C-terminus being variable but predominantly either ending at position 40 or 42. An initial 4-6 hour recovery period elapsed after guide implantation and probe insertion to allow for tissue recovery, followed by collection of microdialysis samples for 5 hours at one-hour intervals at a flow rate of 1.5 μl/min to establish basal level of ISF Aβ. […] Concentrations of ISF Aβ1-x for each mouse were expressed as the percentage of basal level for each mouse (mean of 5 hours prior to treatment).
Acute inhibition of Pgp activity was assessed using APPsw mice (also called Tg2576). […] Using in vivo microdialysis in awake, freely moving mice (Cirrito, J. R., et al. 2003. J. Neurosci. 23:8844-8853; DeMattos, R. B., et al. 2004. Neuron. 41:193-202), a basal concentration of ISF Aβ was determined over 5 hours. Mice were then treated with either vehicle or XR9576 and ISF Aβ levels were assessed for an additional 10 hours (FIG. 2A). […]

The next series has as its system LRP1. As to the kind of experiment: LRP1 expression in cerebral capillaries by Western blot after acute inhibition of Pgp. It counts as in vivo, APPsw mice. The following applies: ten hours after treatment, 80 mg/kg intravenous. The procedure:
Hippocampal tissue from 12 month old APPsw, Pgp-wild type and APPsw, Pgp-null littermates was homogenized in 150 mM NaCl, 50 mM Tris pH 7.4, 0.5% deoxycholic acid, 0.1% SDS, 1% Triton X-100, 2.5 mM EDTA, and protease inhibitors. Western blotting for MRP1, LRP1, and RAGE were performed using 3-8% NuPAGE Tris-Acetate gels (Invitrogen) with thirty micrograms of protein loaded per lane. Cerebral microvessels from 2-3 month old PGP-wildtype (FVB wild type) and Pgp-null mice were isolated as described (Zlokovic, B. V., et al. 1993. J. Biol. Chem. 268:8019-8025.). […] Bands were detected with Lumigen-TMA6 (Amersham Biosciences) and captured digitally using the Kodak ImageStation 440CF. The relative absorbance of each band was detected by densitometry and normalized to protein loaded in each lane. […]
Acute inhibition of Pgp activity was assessed using APPsw mice (also called Tg2576). […] Using in vivo microdialysis in awake, freely moving mice (Cirrito, J. R., et al. 2003. J. Neurosci. 23:8844-8853; DeMattos, R. B., et al. 2004. Neuron. 41:193-202), a basal concentration of ISF Aβ was determined over 5 hours. Mice were then treated with either vehicle or XR9576 and ISF Aβ levels were assessed for an additional 10 hours (FIG. 2A). […] Ten hours after treatment with either vehicle or XR9576, cerebral microvessels were also isolated and assessed for levels of LRP1 by Western blot.
(In general: Immunoblotting shows a protein as a band on a membrane.)

For series [2], the system named is Pgp. As to the kind of experiment: [99mTc]Sestamibi transport and biodistribution. It counts as in vivo, mice. The conditions noted are these: for brain content of the tracer: five minutes after intravenous bolus injection (2 μCi). On the procedure: The radiopharmaceutical [^99mTc]Sestamibi (Bristol-Myers Squibb Co.) was prepared from a one-step commercial kit formulation by addition of [^99mTc]TcO4^− according to the manufacturer's recommendations (25). […] Data are expressed as percent injected dose per gram tissue [(μCi [^99mTc]Sestamibi in tissue) (μCi injected [^99mTc]Sestamibi)^−1(g tissue)^−1×100] and are reported as mean±SEM (n=3-4) or ±range (n=2).
APPsw^+/− mice were bred to mdr1a/b^−/− animals to produce littermate mice that were positive for the APPsw transgene and either Pgp-null (APPsw^+/−, mdr1a/b^−/−) or Pgp wild type (APPsw^+/−, mdr1a/b^+/+). […] Normally, [^99mTc]Sestamibi is readily transported out of the brain by Pgp.

Series [3] concerns Pgp. As to the kind of experiment: BBB transport: clearance of radiotracers from the brain after intracerebral microinjection. The following applies: both groups (Pgp-wild type and Pgp-null); 30 minutes; co-injected with [125I]Aβ42. The procedure:
Transport of human [^125I]Aβ40 or [^125I]Aβ42 across the BBB and the associated calculations were performed as described (DeMattos, R. B., et al. 2002. Science. 295:2264-2267; Zlokovic, B. V., et al. 2000. Nat. Med. 6:718-719.). Briefly, a guide cannula was implanted stereotaxically into the right caudate-putamen of anesthetized mice at coordinates 0.9 mm anterior to bregma, 1.9 mm lateral, and 2.9 mm below the dura. Animals were allowed to recover after surgery prior to radiotracer studies. […] Twelve nanomoles of [^14C]inulin and either [^125I]Aβ40 or [^125I]Aβ42 was co-injected in a volume of 0.5 μl over 5 minutes using an ultra micropump (World Precision Instruments). The specific activities of peptide were in the range of 80-120 μCi/μg. The percentage of radioactivity remaining in the brain after microinjection was determined as % recovery in brain=100×(Nb/Ni), where Nb is the radioactivity remaining in the brain at the end of the experiment and Ni is the radioactivity microinjected into brain ISF, i.e., the disintegrations per minute for [^14C]inulin and the counts per minute for tricholoracetic acid-precipitable [^125I]radioactivity (intact Aβ). The percentage of Aβ cleared through the BBB was calculated as [(1−Nb(Aβ)/Ni(Aβ))−(1−Nb(inulin)/Ni(inulin))]×100, using a standard time of 30 min. […]

T1 sequence (P21447 whole entry): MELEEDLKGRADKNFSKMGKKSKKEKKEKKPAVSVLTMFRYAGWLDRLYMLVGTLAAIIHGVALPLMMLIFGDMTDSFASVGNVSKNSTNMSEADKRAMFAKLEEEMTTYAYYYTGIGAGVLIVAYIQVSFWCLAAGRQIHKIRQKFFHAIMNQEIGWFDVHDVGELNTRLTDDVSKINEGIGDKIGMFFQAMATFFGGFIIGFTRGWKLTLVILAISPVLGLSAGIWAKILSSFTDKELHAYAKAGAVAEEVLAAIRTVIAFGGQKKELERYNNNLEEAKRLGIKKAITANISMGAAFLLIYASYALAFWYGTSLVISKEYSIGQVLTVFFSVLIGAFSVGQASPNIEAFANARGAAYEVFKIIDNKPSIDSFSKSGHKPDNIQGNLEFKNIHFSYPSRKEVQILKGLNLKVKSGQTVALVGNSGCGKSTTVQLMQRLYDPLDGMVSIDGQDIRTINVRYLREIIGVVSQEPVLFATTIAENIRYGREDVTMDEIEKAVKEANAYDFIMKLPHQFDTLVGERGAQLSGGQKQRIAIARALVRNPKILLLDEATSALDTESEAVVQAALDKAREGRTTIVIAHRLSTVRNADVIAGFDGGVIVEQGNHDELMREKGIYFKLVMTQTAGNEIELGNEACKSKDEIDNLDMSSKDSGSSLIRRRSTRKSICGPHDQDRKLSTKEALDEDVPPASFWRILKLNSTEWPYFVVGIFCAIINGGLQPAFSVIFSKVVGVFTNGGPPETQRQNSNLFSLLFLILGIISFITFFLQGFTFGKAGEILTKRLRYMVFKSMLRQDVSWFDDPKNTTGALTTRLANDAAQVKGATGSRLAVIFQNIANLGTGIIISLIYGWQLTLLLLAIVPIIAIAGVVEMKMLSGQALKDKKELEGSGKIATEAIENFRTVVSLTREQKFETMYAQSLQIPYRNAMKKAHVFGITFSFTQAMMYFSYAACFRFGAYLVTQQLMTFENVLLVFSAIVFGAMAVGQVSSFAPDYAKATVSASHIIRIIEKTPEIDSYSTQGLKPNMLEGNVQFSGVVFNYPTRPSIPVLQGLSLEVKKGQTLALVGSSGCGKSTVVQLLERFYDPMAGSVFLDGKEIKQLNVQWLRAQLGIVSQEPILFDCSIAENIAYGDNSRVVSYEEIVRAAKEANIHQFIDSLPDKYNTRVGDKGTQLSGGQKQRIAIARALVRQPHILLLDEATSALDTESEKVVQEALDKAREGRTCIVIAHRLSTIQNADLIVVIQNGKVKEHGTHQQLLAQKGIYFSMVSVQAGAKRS

Turning to `COc1cc2c(cc1OC)CN(CCc1ccc(NC(=O)c3cc(OC)c(OC)cc3NC(=O)c3cnc4ccccc4c3)cc1)CC2` [XR9576], on Pgp [1] (eight hours after treatment), the “increase of ISF Aβ levels compared to vehicle treated mice” value was about 30%. For the same compound, the “ISF exchangeable Aβ1-x (eAβ1-x) levels, % of control-treated (vehicle-treated) mice” value at Pgp [1] (from eight hours after administration, hippocampus, 3 month old APPsw mice) was found to be 127.7±3.4%. For the same compound, in the series on LRP1, the “levels of LRP1 in cerebral vessels” value is listed as “did not change”. Further, in the series on Pgp [2] (intravenous, 80 mg/kg, data not shown), the “Pgp function at the BBB as determined with [99mTc]Sestamibi analysis” value is given as “inhibits Pgp function at the BBB”.

Take `[C-]#[N+]CC(C)(C)OC.[C-]#[N+]CC(C)(C)OC.[C-]#[N+]CC(C)(C)OC.[C-]#[N+]CC(C)(C)OC.[C-]#[N+]CC(C)(C)OC.[C-]#[N+]CC(C)(C)OC.[Tc]` [[^99mTc]Sestamibi]: in the series with Pgp [2] (FVB strain, without APPsw transgene), the “increase in brain penetration in Pgp-null mice versus wild type” value is “approximately 3.5 fold”. The “brain content of the tracer” value with Pgp [2] (Pgp-null mice (FVB)) was 0.85±0.14 % ID/g; in the series on Pgp [2] (wild type controls (FVB)), 0.22±0.02 % injected dose (ID)/gram (g). The “increase in brain penetration in Pgp-null animals compared with those expressing Pgp” value with Pgp [2] (animals expressing the APPsw+/- transgene) is reported as 3.5 fold. The “blood content of the tracer, difference between the two strains” value with Pgp [2] (wild type versus Pgp-null, five minutes post-injection) is listed as “no difference”.

inulin [[^14C]inulin]: the “brain recovery (retained)” value in the series with Pgp [3] is listed as “Approximately 85%”.
